A short description of the data set: Half-life of peroxycarbonate 1 in basic phosphate buffer (formation of p-nitrophenoxide). It is filed as physicochemical. The note with it: pH 8.2 phosphate buffer (50% MeOH). The protocol:
Reaction of p-nitrophenylchloroformate with tert-butyl hydroperoxide gave the peroxycarbonate 1 which was isolated by silica chromatography as a white solid. Pyridine was added dropwise to a 0° C. methylene chloride solution of the hydroperoxide and chloroformate. The product was characterized by ^1H and ^13C NMR, HRMS, mp=55-56° C. In basic water or water acetonitrile mixtures, 1 gave an almost immediate yellow color indicative of the formation of p-nitrophenoxide. The half-life of 1 in pH 8.2 phosphate buffer (50% MeOH) is approximately 112 sec. In basic aqueous acetonitrile solutions, αN-acetyl lysine methyl ester was converted cleanly to 2 on reaction with 10 equivalents of 1. The peroxycarbamate 2 (Ac-LPC-OMe) is stable to chromatography and can be fully characterized by spectroscopy and HRMS (“LPC” is used herein for lycine peroxycarbamate).

Take `CC(C)(C)OOC(=O)Oc1ccc([N+](=O)[O-])cc1` [compound 1]: the half-life was approximately 1.87 min.

Source of the values: patent US7858388B2, “MS based peptide and protein sequencing via reactions of lysine residues with peroxycarbonate compounds” (Vanderbilt University, priority 2004, dated 2010).
